Test results: patent publication US9695155B2, “Herbicidal substituted pyrimidinyloxy benzene compounds” (E. I. DU PONT DE NEMOURS AND COMPANY, priority 2013, dated 2017)

Key:
[1] = system: Heteranthera limosa; experiment: Test B flooded paddy test; format: in vivo; details: Flood, 250 g ai/ha; 0 to 100 scale where 0 is no effect and 100 is complete control
Summary of the method: (§1)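 Visual ratings on a 0 to 100 scale, where 100 means complete control, compared treated plants with controls after 13 to 15 days in a greenhouse. Treatment went into paddy water 3 cm deep over the soil, applied to plants at the 2-leaf stage.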

[2] = system: velvetleaf; experiment: Test C postemergence; format: in vivo, Abutilon theophrasti; details: for Plant response rating, Velvetleaf / Velvetleaf plant response rating: scale 0 to 100 (0 no effect, 100 complete control)
Summary of the method: (§2)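 Greenhouse herbicide screen. Pre: seeded loam/sand, sprayed at planting. Post: 1–4 leaf plants (2–18 cm) in peat-based mix. Formulation: solvent mixture + surfactant, non-phytotoxic. Readout: visual % control vs untreated, 13–15 d; dash = not tested.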

[3] = system: soybean; experiment: Test C postemergence; format: in vivo, Glycine max; details: for Plant response rating, Soybean / Soybean plant response rating: scale 0 to 100 (0 no effect, 100 complete control)
Summary of the method: as §2

[4] = system: lambsquarters; experiment: Test C postemergence; format: in vivo, Chenopodium album; details: for Plant response rating, Lambsquarters / Lambsquarters plant response rating: scale 0 to 100 (0 no effect, 100 complete control)
Summary of the method: as §2

[5] = system: morningglory; experiment: Test C postemergence; format: in vivo, Ipomoea coccinea; details: for Plant response rating, Morningglory / Morningglory plant response rating: scale 0 to 100 (0 no effect, 100 complete control)
Summary of the method: as §2

[6] = system: kochia; experiment: Test C postemergence; format: in vivo, Kochia scoparia; details: for Kochia plant response rating / Plant response rating, Kochia: scale 0 to 100 (0 no effect, 100 complete control)
Summary of the method: as §2

[7] = system: oilseed rape; experiment: Test C postemergence; format: in vivo, Brassica napus; details: for Plant response rating, Oilseed Rape / Oilseed Rape plant response rating: scale 0 to 100 (0 no effect, 100 complete control)
Summary of the method: as §2

[8] = system: wheat; experiment: Test A postemergence; format: in vivo, Triticum aestivum
Summary of the method: (§3)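 Scoring: eye-based comparison with untreated controls, 0 for no effect through 100 for complete control, at about day 10. Treatments: directed soil spray preemergence; foliar spray postemergence on 2–10 cm plants at the one- to two-leaf stage. Medium: loam soil with sand.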

[9] = system: giant foxtail; experiment: Test A postemergence; format: in vivo, Setaria faberii
Summary of the method: as §3

[10] = system: pigweed; experiment: Test C postemergence; format: in vivo, Amaranthus retroflexus; details: for Plant response rating, Pigweed / Pigweed plant response rating: scale 0 to 100 (0 no effect, 100 complete control)
Summary of the method: as §2

[11] = system: rice; experiment: Test B flooded paddy test; format: in vivo, Oryza sativa; details: Flood, 250 g ai/ha; 0 to 100 scale where 0 is no effect and 100 is complete control
Summary of the method: as §1

[12] = Postemergence, 31 g ai/ha, 13 to 15 days
[13] = 16 g ai/ha, postemergence, visual rating, 13 to 15 days
[14] = 125 g ai/ha, 0 to 100 scale where 0 is no effect and 100 is complete control
[15] = 500 g ai/ha, 0 to 100 scale where 0 is no effect and 100 is complete control
[16] = 8 g ai/ha, postemergence, 0 is no effect, 100 is complete control
[17] = 16 g ai/ha, postemergence, 0 is no effect, 100 is complete control
[18] = 31 g ai/ha, postemergence, visual rating, 13 to 15 days
[19] = 31 g ai/ha, 0 to 100 scale, 0 no effect, 100 complete control
[20] = 125 g ai/ha, postemergence, visual rating
[21] = Postemergence, 62 g ai/ha, 13 to 15 days
[22] = 125 g ai/ha, 0 to 100 scale, 0 no effect, 100 complete control

`Cc1cnc(Oc2cccc(C#N)c2-n2cc(C#N)cn2)nc1` [Compound 90] was tested, and the “Plant response rating, Ducksalad” value [1] was 40, the “Plant response rating (0 to 100), Velvetleaf” value ([2]; 125 g ai/ha, postemergence) was 60 and the “Plant response rating, Velvetleaf” value [2, 12] was 55. The “Plant response rating, Velvetleaf” value ([2]; Postemergence, 62 g ai/ha) was 60, the “Plant response rating (0 to 100), Soybean” value ([3]; 125 g ai/ha, postemergence) was 60 and the “Plant response rating, Soybean” value [3, 12] was 65. The “Plant response rating, Soybean” value ([3]; Postemergence, 62 g ai/ha) was 75, the “Plant response rating (0 to 100), Lambsquarters” value ([4]; 125 g ai/ha, postemergence) was 60 and the “Plant response rating, Lambsquarters” value [4, 12] was 75. For the same compound, the “Plant response rating, Lambsquarters” value ([4]; Postemergence, 62 g ai/ha) was 60, the “Plant response rating (0 to 100), Morningglory” value ([5]; 125 g ai/ha, postemergence) was 85 and the “Plant response rating, Morningglory” value [5, 12] was 60. For the same compound, the “Plant response rating, Morningglory” value ([5]; Postemergence, 62 g ai/ha) was 75, the “Kochia plant response rating” value [6, 13] was 45 and the “Plant response rating (0 to 100), Kochia” value ([6]; 125 g ai/ha, postemergence) was 90. The “Plant response rating, Kochia” value [6, 12] was 70, the “Plant response rating, Kochia” value ([6]; Postemergence, 62 g ai/ha) was 45 and the “Plant response rating (0 to 100), Oilseed Rape” value ([7]; 125 g ai/ha, postemergence) was 40. The “Plant response rating, Oilseed Rape” value [7, 12] was 5, the “Plant response rating, Oilseed Rape” value ([7]; Postemergence, 62 g ai/ha) was 50 and the “Plant response rating, Wheat” value [8, 14] was 0. The “Plant response rating, Wheat” value [8, 15] was 50, the “Plant response rating, Foxtail, Giant” value [9, 14] was 80 and the “Plant response rating, Foxtail, Giant” value [9, 15] was 90. For the same compound, the “Plant response rating (0 to 100), Pigweed” value ([10]; 125 g ai/ha, postemergence) was 70, the “Plant response rating, Pigweed” value [10, 12] was 45 and the “Plant response rating, Pigweed” value ([10]; Postemergence, 62 g ai/ha) was 45. For the same compound, the “Plant response rating, Rice” value [11] was 0.
With `CC(C)c1cnn(-c2c(C#N)cccc2Oc2ncc(Cl)cn2)c1` [Compound 85] the “Plant response rating, Ducksalad” value [1] was 30, the “Plant response rating (0 to 100), Velvetleaf” value ([2]; 125 g ai/ha, postemergence) was 55 and the “Plant response rating, Velvetleaf” value [2, 12] was 45. The “Plant response rating, Velvetleaf” value ([2]; Postemergence, 62 g ai/ha) was 45, the “Plant response rating (0 to 100), Soybean” value ([3]; 125 g ai/ha, postemergence) was 90 and the “Plant response rating, Soybean” value [3, 12] was 75. For the same compound, the “Plant response rating, Soybean” value ([3]; Postemergence, 62 g ai/ha) was 65, the “Plant response rating (0 to 100), Lambsquarters” value ([4]; 125 g ai/ha, postemergence) was 70 and the “Plant response rating, Lambsquarters” value [4, 12] was 55. For the same compound, the “Plant response rating, Lambsquarters” value ([4]; Postemergence, 62 g ai/ha) was 75, the “Plant response rating (0 to 100), Morningglory” value ([5]; 125 g ai/ha, postemergence) was 40 and the “Plant response rating, Morningglory” value [5, 12] was 60. The “Plant response rating, Morningglory” value ([5]; Postemergence, 62 g ai/ha) was 25, the “Kochia plant response rating” value [6, 13] was 50 and the “Plant response rating (0 to 100), Kochia” value ([6]; 125 g ai/ha, postemergence) was 90. The “Plant response rating, Kochia” value [6, 12] was 50, the “Plant response rating, Kochia” value ([6]; Postemergence, 62 g ai/ha) was 80 and the “Plant response rating (0 to 100), Oilseed Rape” value ([7]; 125 g ai/ha, postemergence) was 15. The “Plant response rating, Oilseed Rape” value [7, 12] was 5, the “Plant response rating, Oilseed Rape” value ([7]; Postemergence, 62 g ai/ha) was 30 and the “Plant response rating, Wheat” value [8, 14] was 0. The “Plant response rating, Wheat” value [8, 15] was 70, the “Plant response rating, Foxtail, Giant” value [9, 14] was 70 and the “Plant response rating, Foxtail, Giant” value [9, 15] was 90. For the same compound, the “Plant response rating (0 to 100), Pigweed” value ([10]; 125 g ai/ha, postemergence) was 70, the “Plant response rating, Pigweed” value [10, 12] was 55 and the “Plant response rating, Pigweed” value ([10]; Postemergence, 62 g ai/ha) was 70. The “Plant response rating, Rice” value [11] was 10.
With `FCc1cccc(Oc2ncc(F)cn2)c1-n1cc(I)cn1` [Compound 152] the “Plant response rating, Ducksalad” value [1] was 60, the “Plant response rating (0 to 100), Velvetleaf” value [2, 16] was 5 and the “Plant response rating (0 to 100), Velvetleaf” value [2, 17] was 20. The “Velvetleaf plant response rating” value [2, 18] was 45, the “Plant response rating (0 to 100), Soybean” value [3, 16] was 30 and the “Plant response rating (0 to 100), Soybean” value [3, 17] was 35. For the same compound, the “Soybean plant response rating” value [3, 18] was 60, the “Plant response rating (0 to 100), Lambsquarters” value [4, 16] was 60 and the “Plant response rating (0 to 100), Lambsquarters” value [4, 17] was 40. The “Lambsquarters plant response rating” value [4, 18] was 80, the “Plant response rating (0 to 100), Morningglory” value [5, 16] was 0 and the “Plant response rating (0 to 100), Morningglory” value [5, 17] was 10. The “Morningglory plant response rating” value [5, 18] was 40, the “Plant response rating (0 to 100), Kochia” value [6, 16] was 10 and the “Plant response rating (0 to 100), Kochia” value [6, 17] was 15. The “Kochia plant response rating” value [6, 18] was 40, the “Plant response rating (0 to 100), Oilseed Rape” value [7, 16] was 5 and the “Plant response rating (0 to 100), Oilseed Rape” value [7, 17] was 35. For the same compound, the “Oilseed Rape plant response rating” value [7, 18] was 60, the “Plant response rating, Wheat” value [8, 19] was 20 and the “Wheat plant response rating” value [8, 14] was 40. For the same compound, the “Plant response rating, Foxtail, Giant” value [9, 19] was 0, the “Foxtail, Giant plant response rating” value [9, 14] was 40 and the “Plant response rating (0 to 100), Pigweed” value [10, 16] was 30. For the same compound, the “Plant response rating (0 to 100), Pigweed” value [10, 17] was 50, the “Pigweed plant response rating” value [10, 18] was 60 and the “Plant response rating, Rice” value [11] was 0.
For `N#Cc1cnn(-c2c(Oc3ncc(F)cn3)cccc2C(F)F)c1` [Compound 240], the “Plant response rating, Ducksalad” value [1] was 50, the “Plant response rating (0 to 100), Velvetleaf” value [2, 17] was 10 and the “Velvetleaf plant response rating” value [2, 18] was 25. The “Plant response rating, Velvetleaf” value [2, 20] was 80, the “Plant response rating, Velvetleaf” value [2, 21] was 45 and the “Plant response rating (0 to 100), Soybean” value [3, 17] was 30. The “Soybean plant response rating” value [3, 18] was 40, the “Plant response rating, Soybean” value [3, 20] was 75 and the “Plant response rating, Soybean” value [3, 21] was 60. For the same compound, the “Plant response rating (0 to 100), Lambsquarters” value [4, 17] was 15, the “Lambsquarters plant response rating” value [4, 18] was 45 and the “Plant response rating, Lambsquarters” value [4, 20] was 90. The “Plant response rating, Lambsquarters” value [4, 21] was 75, the “Plant response rating (0 to 100), Morningglory” value [5, 17] was 30 and the “Morningglory plant response rating” value [5, 18] was 65. For the same compound, the “Plant response rating, Morningglory” value [5, 20] was 90, the “Plant response rating, Morningglory” value [5, 21] was 75 and the “Plant response rating (0 to 100), Kochia” value [6, 17] was 40. The “Kochia plant response rating” value [6, 18] was 45, the “Plant response rating, Kochia” value [6, 20] was 90 and the “Plant response rating, Kochia” value [6, 21] was 45. For the same compound, the “Plant response rating (0 to 100), Oilseed Rape” value [7, 17] was 30, the “Oilseed Rape plant response rating” value [7, 18] was 35 and the “Plant response rating, Oilseed Rape” value [7, 20] was 60. The “Plant response rating, Oilseed Rape” value [7, 21] was 55, the “Plant response rating, Wheat” value [8, 22] was 30 and the “Plant response rating, Wheat” value [8, 15] was 90. For the same compound, the “Plant response rating, Foxtail, Giant” value [9, 22] was 90, the “Plant response rating, Foxtail, Giant” value [9, 15] was 100 and the “Plant response rating (0 to 100), Pigweed” value [10, 17] was 15. For the same compound, the “Pigweed plant response rating” value [10, 18] was 30, the “Plant response rating, Pigweed” value [10, 20] was 75 and the “Plant response rating, Pigweed” value [10, 21] was 45. For the same compound, the “Plant response rating, Rice” value [11] was 0.
